Results as given in ChEMBL document CHEMBL1142232, “Inhibition of spinal microglial cathepsin S for the reversal of neuropathic pain” (Proc Natl Acad Sci U S A, 2007).
Active and inactive are the calls of the source. Where a SMILES comes first, the peptide text is derived from it. [ ]: non-standard residue; d: D form. Oic = O=C(O)[C@@H]1C[C@@H]2CCCC[C@@H]2N1; Hyp = O=C(O)[C@@H]1C[C@@H](O)CN1; dTic = O=C(O)[C@H]1Cc2ccccc2CN1; 2Thi = N[C@@H](Cc1cccs1)C(=O)O

Experiments:
Rattus norvegicus [1] = experiment: Inhibition of rat recombinant cathepsin S-induced hyperalgesia in naive Wistar rat at 50 nmol administered 30 mins before cathepsin S challenge; type: functional, organism-based
Rattus norvegicus [2] = species: Rattus norvegicus; experiment: Inhibition of rat recombinant cathepsin S-induced hyperalgesia in Wistar rat at 50 ug; type: functional, organism-based
Rattus norvegicus [3] = species: Rattus norvegicus; experiment: Toxicity in Wistar rat assessed as effect on motor behavior by rotarod test; type: organism-based; conditions: in vivo
Rattus norvegicus [4] = experiment: Effect on contralateral mechanical thresholds in intrathecally dosed Wistar rat partial ligation of sciatic nerve neuropathic pain model; type: functional, organism-based
Rattus norvegicus [5] = species: Rattus norvegicus; experiment: Analgesic activity in Wistar rat partial ligation of sciatic nerve model of neuropathic pain assessed as reversal of allodynia at 30 nmol after 3 to 5 days; type: functional, organism-based
Rattus norvegicus [6] = experiment: Antinociceptive activity in intrathecally dosed Wistar rat partial ligation of sciatic nerve 3-day neuropathic pain model assessed as alteration of mechanical allodynia at 50 nmol; type: functional, organism-based
Rattus norvegicus [7] = experiment: Analgesic activity in intrathecally dosed Wistar rat partial ligation of sciatic nerve neuropathic pain model assessed as attenuation of allodynia at 50 nmol after 14 days; type: functional, organism-based
Rattus norvegicus [8] = species: Rattus norvegicus; experiment: Effect on sarcosine-induced hyperalgesia in Wistar rat; type: functional, organism-based
Rattus norvegicus [9] = species: Rattus norvegicus; experiment: Reduction of microglial activation in Wistar rat partial ligation of sciatic nerve neuropathic pain model at 30 nmol; type: functional, organism-based
Rattus norvegicus [10] = experiment: Analgesic activity in intrathecally dosed Wistar rat partial ligation of sciatic nerve neuropathic pain model assessed as reduction of mechanical hyperalgesia at 10 nmol after 14 days; type: functional, organism-based
Rattus norvegicus [11] = experiment: Analgesic activity in intrathecally dosed Wistar rat partial ligation of sciatic nerve neuropathic pain model assessed as attenuation of allodynia at 50 nmol after 7 days; type: functional, organism-based
Rattus norvegicus [12] = species: Rattus norvegicus; experiment: Effect on NMDA-induced hyperalgesia in Wistar rat; type: functional, organism-based
Rattus norvegicus [13] = experiment: Analgesic activity in intrathecally dosed Wistar rat partial ligation of sciatic nerve neuropathic pain model assessed as reduction of mechanical hyperalgesia at 50 nmol after 14 days; type: functional, organism-based
Rattus norvegicus [14] = species: Rattus norvegicus; experiment: Analgesic activity in Wistar rat partial ligation of sciatic nerve model of neuropathic pain assessed as reversal of allodynia at 30 nmol after 7 days; type: functional, organism-based

In the case of `N=C(N)NCCC[C@@H](N)C(=O)N[C@@H](CCCNC(=N)N)C(=O)N1CCC[C@H]1C(=O)N1C[C@H](O)C[C@H]1C(=O)NCC(=O)N[C@@H](Cc1cccs1)C(=O)N[C@@H](CO)C(=O)N1Cc2ccccc2C[C@@H]1C(=O)N1[C@H](C(=O)O)C[C@@H]2CCCC[C@@H]21` (H-[dR]RP[Hyp]G[2Thi]S[dTic][Oic]-OH), the Activity (Rattus norvegicus [1]) is reported as “inactive” and the Activity (Rattus norvegicus [2]) is reported as “inactive”.
For `N=C(N)NCCC[C@@H](N)C(=O)N[C@@H](CCCNC(=N)N)C(=O)N1CCC[C@H]1C(=O)N1C[C@H](O)C[C@H]1C(=O)NCC(=O)N[C@@H](Cc1cccs1)C(=O)N[C@@H](CO)C(=O)N1Cc2ccccc2C[C@@H]1C(=O)N1[C@H](C(=O)N[C@@H](CCCNC(=N)N)C(=O)O)C[C@@H]2CCCC[C@@H]21`, the Activity (Rattus norvegicus [1]) was “inactive” and the Activity (Rattus norvegicus [2]) was “inactive”.
With `CC(C)C[C@@H](NC(=O)N1CCOCC1)C(=O)N[C@@H](/C=C/S(=O)(=O)c1ccccc1)CCc1ccccc1` the Activity (Rattus norvegicus [3]) was “Non-toxic”, the Activity (Rattus norvegicus [4]) was “inactive” and the Activity (Rattus norvegicus [5]) was “inactive”. For the same compound, the Activity (Rattus norvegicus [6]) was “inactive”, the Activity (Rattus norvegicus [7]) was “Active” and the Activity (Rattus norvegicus [8]) was “inactive”. The Activity (Rattus norvegicus [9]) was “Active”, the Activity (Rattus norvegicus [10]) was “Active” and the Activity (Rattus norvegicus [11]) was “Active”. For the same compound, the Activity (Rattus norvegicus [1]) was “inactive”, the Activity (Rattus norvegicus [12]) was “inactive” and the Activity (Rattus norvegicus [13]) was “Active”. For the same compound, the Activity (Rattus norvegicus [14]) was “Active”.
